According to patent US8575153B2 (Kowa Company, Ltd., priority 2008, dated 2013):

Biological target: Recombinant human JAK3 enzyme (JAK3 kinase region; Ala795-Ser1124) (Homo sapiens, UniProt P52333)
Experiment: JAK3 Kinase Assay (Kinase-Glo luminescent, ATP consumption)
Conditions: for inhibition at 0.1 µM: read-out: Inhibition rate (%) of JAK3 kinase activity; for Inhibition rate (%) of JAK3 kinase activity: test compound at 0.1 μM
Experimental: Recombinant human JAK3 enzyme (JAK3 kinase region; Ala795-Ser1124) was purchased from Carna Biosciences, Inc.
The reaction was conducted in a kinase buffer (reaction volume: a total of 50 μl) containing 8 mM MOPS (pH 7.0), 0.2 mM EDTA, a test compound solution prepared to each concentration and 0.5 μg/ml JAK3 enzyme using a 96-well polystyrene plate (clear-bottom white-wall). […] After incubating them at room temperature for 2 hours, 50 μl of Kinase-Glo Luminescent Kinase Assay reagent (Promega) was added to each well, and further incubated at room temperature for 10 minutes. Using a chemiluminescence microplate reader MicroLumat LB96P (Berthold), chemiluminescence intensity was measured to quantitate the amount of ATP remaining after reaction. From the amount of ATP consumed in the phosphorylation reaction, the inhibition rate (%) of JAK3 kinase activity was determined.

Recombinant human JAK3 enzyme (JAK3 kinase region; Ala795-Ser1124), sequence (P52333 795-1124): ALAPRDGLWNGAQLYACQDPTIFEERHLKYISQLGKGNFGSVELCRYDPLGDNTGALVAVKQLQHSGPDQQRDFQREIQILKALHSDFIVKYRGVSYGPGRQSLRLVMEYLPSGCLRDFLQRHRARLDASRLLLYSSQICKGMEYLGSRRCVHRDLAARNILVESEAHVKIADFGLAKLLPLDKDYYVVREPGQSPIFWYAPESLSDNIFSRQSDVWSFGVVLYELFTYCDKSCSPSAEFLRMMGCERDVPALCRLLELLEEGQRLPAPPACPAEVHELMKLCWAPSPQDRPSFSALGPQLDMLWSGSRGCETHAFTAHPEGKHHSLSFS

Row | Compound | inhibition at 0.1 µM [%] | Inhibition rate (%) of JAK3 kinase activity [%]
1 | CC(C)S(=O)(=O)Nc1cccc(Nc2cc(NCc3cc(F)cc(F)c3)c(C(N)=O)cn2)c1 [Example 165, 4-[(3,5-difluorobenzyl)amino]-6-({3-[(propan-2-ylsulfonyl)amino]phenyl}amino)pyridine-3-carboxyamide] | 54 | 
2 | CC(C)S(=O)(=O)N1CCN(c2ccc(Nc3cc(NCc4c(F)cccc4F)c(C(N)=O)cn3)cc2)CC1 [Example 172, 4-[(2,6-difluorobenzyl)amino]-6-({4-[4-(propan-2-ylsulfonyl)piperazin-1-yl]phenyl}amino) pyridine-3-carboxyamide] | 59 | 
3 | CC(C)S(=O)(=O)N1CCN(c2cccc(Nc3cc(NCc4cc(F)cc(F)c4)c(C(N)=O)cn3)c2)CC1 [Example 174, 4-[(3,5-difluorobenzyl)amino]-6-({3-[4-(propan-2-ylsulfonyl)piperazin-1-yl]phenyl}amino) pyridine-3-carboxyamide] |  | 58
4 | CS(=O)(=O)NCCCc1ccc(Nc2cc(NCc3cc(F)cc(F)c3)c(C(N)=O)cn2)cc1 [Example 202] |  | 88
5 | CCN(CC)CC(=O)N1CCN(c2ccc(Nc3cc(NCc4cccc(F)c4F)c(C(N)=O)cn3)cc2)CC1 [Example 205, 6-({4-[4-(N,N-diethylglycyl)piperazin-1-yl]phenyl}amino}-4-[(2,3-difluorobenzyl)amino]pyridine-3-carboxyamide] | 98 | 
6 | NC(=O)c1cnc(Nc2ccc(N3CCNCC3)cc2)cc1NCc1cc(F)cc(F)c1 [Example 221, 4-[(3,5-difluorobenzyl)amino]-6-{[4-(piperazin-1-yl)phenyl]amino}pyridine-3-carboxyamide] | 78 | 
7 | NC(=O)c1cnc(Nc2ccc(N3CCNCC3)cc2)cc1NCc1cc(F)ccc1F [Example 222, 4-[(2,5-difluorobenzyl)amino]-6-{[4-(piperazin-1-yl)phenyl]amino}pyridine-3-carboxyamide] | 78 | 
8 | NC(=O)c1cnc(Nc2ccc(N3CCNCC3)cc2)cc1NCc1c(F)cccc1F [Example 223, 4-[(2,6-difluorobenzyl)amino]-6-{[4-(piperazin-1-yl)phenyl]amino}pyridine-3-carboxyamide] | 81 | 
9 | NC(=O)c1cnc(Nc2cccc(N3CCNCC3)c2)cc1NCc1cc(F)cc(F)c1 [Example 225, 4-[(3,5-difluorobenzyl)amino]-6-{[3-(piperazin-1-yl)phenyl]amino}pyridine-3-carboxyamide] | 74 | 
10 | COCCNc1ccc(Nc2cc(NCc3cc(F)cc(F)c3)c(C(N)=O)cn2)cc1 [Example 233, 4-[(3,5-difluorobenzyl)amino]-6-({4-[(2-methoxyethyl)amino]phenyl}amino)pyridine-3-carboxyamide] | 74 | 
11 | NC(=O)c1cnc(Nc2ccc(NCCO)cc2)cc1NCc1cc(F)cc(F)c1 [Example 234, 4-[(3,5-difluorobenzyl)amino]-6-({4-[(2-hydroxyethyl)amino]phenyl}amino)pyridine-3-carboxyamide] | 72 | 
12 | CCN(CC)CCN1CCN(c2ccc(Nc3cc(NCc4cccc(F)c4F)c(C(N)=O)cn3)cc2)CC1 [Example 237, 6-[(4-{4-[2-(diethylamino)ethyl]piperazin-1-yl}phenyl)amino]-4-[(2,3-difluorobenzyl)amino]pyridine-3-carboxyamide] | 78 | 
13 | CCN(CC)CCN1CCN(c2ccc(Nc3cc(NCc4cc(F)cc(F)c4)c(C(N)=O)cn3)cc2)CC1 [Example 238, 6-[(4-{4-[2-(diethylamino)ethyl]piperazin-1-yl}phenyl)amino]-4-[(3,5-difluorobenzyl)amino]pyridine-3-carboxyamide] | 100 | 
14 | CCN(CC)CCN1CCN(c2cccc(Nc3cc(NCc4cc(F)cc(F)c4)c(C(N)=O)cn3)c2)CC1 [Example 239, 6-[(3-{4-[2-(diethylamino)ethyl]piperazin-1-yl}phenyl)amino]-4-[(3,5-difluorobenzyl)amino]pyridine-3-carboxyamide] | 57 | 
15 | N#CCCN1CCN(c2ccc(Nc3cc(NCc4cc(F)cc(F)c4)c(C(N)=O)cn3)cc2)CC1 [Example 240, 6-({4-[4-(2-cyanoethyl)piperazin-1-yl]phenyl}amino)-4-[(3,5-difluorobenzyl)amino]pyridine-3-carboxyamide] | 85 | 

Further lines, with some results ahead:

Row | inhibition at 0.1 µM [%] | Compound | Inhibition rate (%) of JAK3 kinase activity [%]
16 | 86 | NC(=O)c1cnc(Nc2ccc(N3CCC(C(=O)NCCO)CC3)cc2)cc1NCc1ccccc1 [Example 176, 4-(benzylamino)-6-[(4-{4-[(2-hydroxyethyl)carbamoyl]piperidino}phenyl)amino]pyridine-3-carboxyamide] | 
17 | 84 | NC(=O)c1cnc(Nc2ccc(N3CCC(C(=O)N(CCO)CCO)CC3)cc2)cc1NCc1ccccc1 [Example 177, 4-(benzylamino)-6-[(4-{4-[bis(2-hydroxyethyl)carbamoyl]piperidino}phenyl)amino]pyridine-3-carboxyamide] | 
18 | 90 | NC(=O)c1cnc(Nc2ccc(N3CCC(CCO)CC3)cc2)cc1NCc1cccc(F)c1F [Example 178, 4-[(2,3-difluorobenzyl)amino]-6-({4-{4-(2-hydroxyethyl)piperidino]phenyl}amino)pyridine-3-carboxyamide] | 
19 | 78 | NC(=O)c1cnc(Nc2ccc(N3CCC(CCO)CC3)cc2)cc1NCc1cc(F)cc(F)c1 [Example 179] | 
20 | 63 | NC(=O)c1cnc(Nc2ccc(N3CCC(CCO)CC3)cc2)cc1NCc1cccc([N+](=O)[O-])c1 [Example 180, 6-({4-[4-(2-hydroxyethyl)piperidino]phenyl}amino)-4-[(3-nitrobenzyl)amino]pyridine-3-carboxyamide] | 
21 | 87 | Cc1ccccc1CNc1cc(Nc2ccc(N3CCC(O)CC3)cc2)ncc1C(N)=O [Example 185, 4-[(2-methylbenzyl)amino]-6-{[4-(4-hydroxypiperidino)phenyl]amino}pyridine-3-carboxyamide] | 
22 | 93 | NC(=O)c1cnc(Nc2ccc(N3CCC(O)CC3)cc2)cc1NCc1ccccc1Cl [Example 186, 4-[(2-chlorobenzyl)amino]-6-{[4-(4-hydroxypiperidino)phenyl]amino}pyridine-3-carboxyamide] | 
23 | 85 | NC(=O)c1cnc(Nc2ccc(N3CCC(O)CC3)cc2)cc1NCc1cccc(F)c1F [Example 187, 4-[(2,3-difluorobenzyl)amino]-6-{[4-(4-hydroxypiperidino)phenyl]amino}pyridine-3-carboxyamide] | 
24 | 89 | NC(=O)c1cnc(Nc2ccc(N3CCC(O)CC3)cc2)cc1NCc1cc(F)ccc1F [Example 188, 4-[(2,5-difluorobenzyl)amino]-6-[(4-(4-hydroxypiperidino)phenyl]amino}pyridine-3-carboxyamide] | 
25 | 65 | NC(=O)c1cnc(Nc2ccc(N3CCNCC3)cc2)cc1NCc1ccccc1 [Example 219] | 
26 | 68 | NC(=O)c1cnc(Nc2ccc(N3CCNCC3)cc2)cc1NCc1cccc([N+](=O)[O-])c1 [Example 224, 4-[(3-nitrobenzyl)amino]-6-{[4-(piperazin-1-yl)phenyl]amino}pyridine-3-carboxyamide] | 
27 | 83 | CCN(CC)CCN1CCN(c2ccc(Nc3cc(NCc4ccccc4)c(C(N)=O)cn3)cc2)CC1 [Example 236, 4-(benzylamino)-6-[(4-{4-[2-(diethylamino)ethyl]piperazin-1-yl}phenyl)amino]pyridine-3-carboxyamide] | 
